pIC50: −log10 of the molar value. Like-named read-outs stand apart in the source and are kept apart here.
Columns and labels:
[1] = test system: mouse peritoneal macrophages; experiment: Cholesteryl ester hydrolysis in macrophages; assay type: cell-based; conditions: AcLDL 50 μg/ml + S-58035 1 μg/ml + 5 × 10^-6 M compound
Procedure: These experiments were performed by incubating cells preloaded with [^3 H]cholesterol in the presence of the specific ACAT inhibitor S-58035. The blockage of intracellular reesterification of cholesterol allowed the assessment of the ability of cells to hydrolyze the accumulated cholesterol esters.
For studies involving the quantitation of the hydrolysis of cholesteryl esters in cytoplasmic lipid droplets, cells, prepared according to the procedure in Example 6A, are loaded with cholesteryl esters by exposure for 24 hours to the medium containing 50 μg/ml acetyl LDL. [1,2-^3 H]Cholesterol is included in all loading media at a concentration of 0.5 μCi/ml. After 24 hours loading period, during which time the radiolabeled cholesterol is incorporated and esterified, the cell monolayers are washed and incubated an additional 24 hours in medium containing 0.1% bovine serum albumin to allow the intracellular pools of labelled cholesterol to equilibrate to the same specific activity. To quantitate cholesteryl ester hydrolysis, the loaded cells are incubated for up to 24 hours in Dulbecco's minimum essential medium containing, 0.1% bovine serum albumin, lercanidipines, and the compound S-58035, an inhibitor of acyl-coenzyme A-cholesterol acyltransferase. The inhibition of acyl-coenzyme A-cholesterol acyltransferase prevents the reesterification of any free cholesterol generated by cholesteryl ester hydrolysis and thus allows assessment of the activity of the hydrolase. The hydrolysis of the cholesteryl esters is quantified by determining the decrease of radiolabeled cholesteryl esters (E. H. Harrison et al., J. Lipid. Res. 31: […] with phosphate buffered saline and extracted with hexane:isopropanol (3:2 v/v). The media were extracted with chloroform:methanol (2:1 v/v). After solvent removal, free and esterified cholesterol were separated by TLC (isooctane:diethyl ether:acetic acid, 75:25:2 by volume). Cholesterol mass or radioactivity of the spots were determined by an enzymatic method (Boehringer Mannheim, Germany) (F. Bernini et al., Atherosclerosis 104: 19 (1993)) or by liquid scintillation counting (Lipoluma Lumac, Landgraf, The Netherlands) respectively.

[2] = test system: renal hypertensive dogs; experiment: Blood pressure in renal hypertensive dogs, oral administration; assay type: in vivo, dog; conditions: for ED25: Canis lupus familiaris, linear regression analysis, read-out: ED25 (dose inducing 25% decrease in DBP at peak effect), 95% C.L.
Procedure: The antihypertensive effects of oral administration of lercanidipine and its enantiomers were tested in renal hypertensive dogs.
Male Beagle dogs weighing 12-13 kg, aging 1-3 years (Nossan Allevamenti, Italy) were used. Chronic sustained hypertension was induced by bilateral renal artery constriction, according to the Goldblatt method "two-kidney, two clip hypertension". Under barbiturate anaesthesia (35 mg/kg i.v.), during two different surgical interventions one month apart from each other, both renal arteries were clipped with original renal silver clips and narrowed by about 60-70%. After two months from the last intervention,an experimental renal hypertension was produced and the animals were suitable for the implantation of a catheter. Under sodium pentobarbital anaesthesia (35 mg/kg i.v.), in sterile conditions, the dogs were catheterized by inserting an indwelling cannula (PE 200 Clay Adams) into the ascending aorta through the right common carotid artery. The catheter was subcutaneously exteriorized at the back of the neck, filled with heparinized saline solution and flushed daily to prevent clotting. After a week recovery time from surgery, the animals were connected to a HP 1290A pressure transducer connected to an HP 8805B carrier amplifier of a Hewlett Packard HP 7700 multichannel polygraph, to monitor the arterial blood pressure. Heart rate was manually computed from the pressure trace.
All animals were alternatively treated with placebo, lercanidipine and its (R)- and (S)- enantiomers. The drugs were administered orally with a straight round aseptic tip catheter (Pores Serlat--France). The drugs were suspended in aqueous 0.5% Methocel A4C plus Antifoam M10 (10%). The amount administered was 1 ml/kg.
The suspending medicine was used as placebo. During experimental performance, the arterial blood pressure was continuously recorded 30 min. before (basal values) and up to 8 hours after drug administration.
The ED25 values (dose inducing 25% decrease in DBP at peak effect) were evaluated by linear regression analysis and summarized in the Table 4.

[3] = test system: rat aortic smooth muscle cells (myocytes); experiment: Myocytes growth inhibition measured by cell count (rat myocytes); assay type: cell-based; conditions: 72 h, cell count after 72 hours, read-out: IC50 = concentration required to inhibit cell growth by 50%
Procedure: Migration of myocytes was investigated for the present invention using rat aortic smooth muscle cells in the presence of fibrinogen as chemotactic factor, whereas for studies on their proliferation rat and human cells were used. Cell count and [3H]-thymidine incorporation were used to evaluate myocytes growth. The methodology was as follows:
Myocytes were cultured from the intima-medial layer of the aortas of male Sprague-Dawley rats (200-250 g). Cells were grown in monolayers at 37° C. in a humidified atmosphere of 5% CO2 in Eagle's minimum essential medium supplemented with 10% (v/v) fetal calf serum, 100 U/ml penicillin, 0.1 mg/ml streptomycin, 20 mM tricine buffer and 1% (v/v) non-essential amino acid solution. The medium was changed every third day. Cells were used between the 4th and 10th passage. Cell viability was timely assessed by trypan blue exclusion. Myocytes were identified for growth behavior, morphology and using monoclonal antibody specific for a-actin, the actin isoform typical of myocytes. Human vascular myocytes (A 617 from human femoral artery) kindly provided by Prof. G. Gabbiani of The General Pathology Institute (Geneva University--Switzerland) were grown in the same culture conditions. (These or other human vascular myocytes can be obtained and cultured as described by Corsini et al., Atherosclerosis, 101: 117-125, (1993); Corsini et al., Pharm. Res, 23: 173 (1991); Ross, R, J. Cell Bio., 50: 172, (1971); and Skalli, 0. et al., J. Cell Bio., 103: 2787 (1986)).
Cells were seeded at various densities for rat (2×10^5) and human (5 10×10^4) myocytes/petri dish (35 mm), and incubated with Eagle's minimum essential medium supplemented with 10% fetal calf serum. Twenty-four hours later the medium was changed to one containing 0.4% fetal calf serum to stop cell growth, and the cultures were incubated for 72 hours. At this time (time 0) the medium was replaced by one containing 10% fetal calf serum in the presence or absence of known concentrations of the 1,4-dihydropyridine compounds being tested (shown in Table 1). The incubation was continued for an additional 72 hours at 37° C. Just before the addition of the test substances, an aliquot from each petri dish was used for cell counting. Cell proliferation was evaluated by cell count after trypsinization of the monolayers using a Coulter Counter model ZM. Cell viability was assessed by trypan blue exclusion, and found to be greater than 95% at the drug concentrations used.

[4] = myocytes from SD (Sprague Dawley) rat
[5] = myocytes from SHR (Spontaneously Hypertensive) rat
[6] = myocytes from WK (Wistar Kyoto) rat

Row | Structure (SMILES) | % of cholesteryl ester [1] [%] | arterial blood pressure [2] | ED25 [2] [mg/kg] | pIC50 [3, 4] | pIC50 [3, 5] | pIC50 [3, 6] | decrease in DBP ([2]; up to 30 mg/kg) [%] | efficacy at lowering blood pressure relative to the racemate [2]
1 | COC(=O)C1=C(C)NC(C)=C(C(=O)OC(C)(C)CN(C)CCC(c2ccccc2)c2ccccc2)C1c1cccc([N+](=O)[O-])c1 (racemic) [LE, methyl 1,1,N-trimethyl-N-(3,3-diphenylpropyl)-2-aminoethyl 1,4-dihydro-2,6-dimethyl-4-(3-nitrophenyl)-pyridine-3,5-dicarboxylate] | 12 ± 1.2 | dose-related decrease | 0.9 | – | – | – | – | –
2 | COC(=O)C1=C(C)NC(C)=C(C(=O)OC(C)(C)CN(C)CCC(c2ccccc2)c2ccccc2)[C@@H]1c1cccc([N+](=O)[O-])c1 [(R)-LE, (R)-(-)METHYL 1,1-N-TRIMETHYL-N-(3,3-DIPHENYLPROPYL)-2-AMINOETHYL 1,4-DIHYDRO-2,6-DIMETHYL-4-(3-NITROPHENYL)PYRIDINE-3,5-DICARBOXYLATE] | 16 ± 2.1 | – | > 30 | 4.51 | 5.04 | 4.82 | < 10 | –
3 | COC(=O)C1=C(C)NC(C)=C(C(=O)OC(C)(C)CN(C)CCC(c2ccccc2)c2ccccc2)[C@H]1c1cccc([N+](=O)[O-])c1 [(S)-LE, (S)-(+)-METHYL 1,1-N-TRIMETHYL-N-(3,3-DIPHENYLPROPYL)-2-AMINOETHYL 1,4-DIHYDRO-2,6-DIMETHYL-4-(3-NITROPHENYL)PYRIDINE-3,5-DICARBOXYLATE] | 14 ± 0.4 | dose-related decrease | 0.4 | 4.48 | 4.77 | 4.68 | – | two fold more efficacious

From patent publication US5912351A, “Anhydrous 1,4-Dihydropyridines and salts thereof” (Recordati, S.A. Chemical and Pharmaceutical Company, priority 1995, dated 1999)
